Active and inactive are the calls of the source. No cut-off for these calls is given here.
Legend:
L929 = assay: Cytotoxicity against mouse L929 cells assessed as reduction in cell viability at 0.78 to 100 uM measured after 24 hrs by MTT colorimetric assay; format: toxicity, cell-based; conditions: l929, 24 h, dose 0.78-100 µM
HCT-116 [1] = assay: Antiproliferative activity against human HCT-116 cells assessed as inhibition of cell growth measured after 48 hrs by MTT assay; format: functional, cell-based; conditions: HCT-116, 48 h
HT-29 [2] = assay: Antiproliferative activity against human HT-29 cells assessed as inhibition of cell growth measured after 48 hrs by MTT assay; format: functional, cell-based; conditions: HT-29, 48 h
[3] = Cytotoxicity against mouse L929 cells assessed as cell survival at 0.78 to 100 uM measured after 24 hrs by MTT colorimetric assay relative to control; format: toxicity, cell-based; conditions: dose 0.78-100 µM, read-out: Activity
HCT-116 [4] = assay: Antiproliferative activity against human HCT-116 cells assessed as inhibition of cell growth at 50 uM measured after 48 hrs by MTT assay; format: functional, cell-based; conditions: HCT-116, 48 h
HT-29 [5] = assay: Antiproliferative activity against human HT-29 cells assessed as inhibition of cell growth at 50 uM measured after 48 hrs by MTT assay; format: functional, cell-based; conditions: HT-29, 48 h
HT-29 [6] = assay: Induction of apoptosis in human HT-29 cells assessed as increase in cleaved caspase-3 expression measured after 24 to 48 hrs by Western blot analysis; format: functional, cell-based; conditions: time 24-48 hrs
HCT-116 [7] = assay: Induction of apoptosis in human HCT-116 cells assessed as increase in cleaved PARP expression measured after 24 to 48 hrs by Western blot analysis; format: functional, cell-based; conditions: time 24-48 hrs
HCT-116 [8] = assay: Induction of apoptosis in human HCT-116 cells assessed as increase in cleaved caspase-3 expression measured after 48 hrs by Western blot analysis; format: functional, cell-based
HCT-116 [9] = assay: Induction of apoptosis in human HCT-116 cells assessed as decrease in ERK phosphorylation level measured after 6 hrs by Western blotting analysis; format: functional, cell-based
HT-29 [10] = assay: Induction of apoptosis in human HT-29 cells assessed as inhibition of capsase-3 expression measured after 24 to 48 hrs by Western blot analysis; format: functional, cell-based; conditions: time 24-48 hrs
HCT-116 [11] = assay: Induction of apoptosis in human HCT-116 cells assessed as inhibition of PARP expression by Western blot analysis; format: functional, cell-based; conditions: time 24-48 hrs, TDE = time-dependent effect
HCT-116 [12] = assay: Induction of apoptosis in human HCT-116 cells assessed as inhibition of capsase-3 expression measured after 24 to 48 hrs by Western blot analysis; format: functional, cell-based; conditions: time 24-48 hrs
HCT-116 [13] = assay: Induction of apoptosis in human HCT-116 cells assessed as upregulation of Akt expression level measured after 6 to 12 hrs by Western blotting analysis; format: functional, cell-based; conditions: time 6-12 hrs
HCT-116 [14] = assay: Induction of apoptosis in human HCT-116 cells assessed as inhibition of ERK phosphorylation level measured after 12 hrs by Western blotting analysis; format: functional, cell-based
HCT-116 [15] = assay: Induction of apoptosis in human HCT-116 cells assessed as downregulation of Akt phosphorylation level measured after 6 hrs by Western blotting analysis; format: functional, cell-based
HCT-116 [16] = assay: Induction of apoptosis in human HCT-116 cells assessed as increase in cleaved caspase-3 expression measured after 24 hrs by Western blot analysis; format: functional, cell-based
HCT-116 [17] = assay: Induction of apoptosis in human HCT-116 cells assessed as effect on ERK expression level measured after 6 to 12 hrs by Western blotting analysis; format: functional, cell-based; conditions: time 6-12 hrs
HCT-116 [18] = assay: Induction of apoptosis in human HCT-116 cells assessed as fold increase in DNA fragmentation measured after 48 hrs by ELISA method; format: functional
HT-29 [19] = assay: Induction of apoptosis in human HT-29 cells assessed as inhibition of PARP expression by Western blot analysis; format: functional, cell-based; conditions: time 24-48 hrs, TDE = time-dependent effect
HT-29 [20] = assay: Induction of apoptosis in human HT-29 cells assessed as fold increase in DNA fragmentation measured after 48 hrs by ELISA method; format: functional
HT-29 [21] = assay: Induction of apoptosis in human HT-29 cells assessed as increase in cleaved PARP expression measured after 48 hrs by Western blot analysis; format: functional, cell-based
HCT-116 [22] = assay: Induction of apoptosis in human HCT-116 cells assessed as activation of p38 measured after 6 to 12 hrs by Western blotting analysis; format: functional, cell-based; conditions: time 6-12 hrs

Row | Compound | Activity (L929) | IC50 (HCT-116 [1]) [µM] | IC50 (HT-29 [2]) [µM] | viability at 24 h, up to 100 µM [3] [%] | further results
1 | C#CCOc1ccc(C(c2ccc(OCc3cn(CCN4CCCCC4)nn3)cc2)c2ccccn2)cc1 (centres undefined) | Non-Toxic | 45 | 24.7 | 100 | –
2 | [O-][n+]1ccccc1C(c1ccc(OCc2cn(CCN3CCCCC3)nn2)cc1)c1ccc(OCc2cn(CCN3CCCCC3)nn2)cc1 | – | > 50 | > 50 | – | IC50 (HCT-116 [4]): > 50 µM; IC50 (HT-29 [5]): > 50 µM
3 | c1ccc(Cn2cc(COc3ccc(C(c4ccc(OCc5cn(Cc6ccccc6)nn5)cc4)c4ccccn4)cc3)nn2)cc1 | Non-Toxic | > 50 | > 50 | 100 | –
4 | c1ccc(C(c2ccc(OCc3cn(CCN4CCCCC4)nn3)cc2)c2ccc(OCc3cn(CCN4CCCCC4)nn3)cc2)nc1 | Non-Toxic | 14.4 | 11 | 100 | Activity (HT-29 [6]): Active; Activity (HCT-116 [7]): Active; Activity (HCT-116 [8]): Active; Activity (HCT-116 [9]): Active; Activity (HT-29 [10]): Active; Activity (HCT-116 [11]): Tde; Activity (HCT-116 [12]): Active; Activity (HCT-116 [13]): Active; Activity (HCT-116 [14]): Active; Activity (HCT-116 [15]): Active; Activity (HCT-116 [16]): inactive; Activity (HCT-116 [17]): inactive; fold change (FC) (HCT-116 [18]): 6.73; Activity (HT-29 [19]): Tde; fold change (FC) (HT-29 [20]): 5.37; Activity (HT-29 [21]): Active; Activity (HCT-116 [22]): inactive
5 | O[C@@H]1[C@@H](O)[C@@H](O)O[C@H](Cn2cc(COc3ccc(C(c4ccc(OCc5cn(C[C@H]6O[C@H](O)[C@H](O)[C@@H](O)[C@H]6O)nn5)cc4)c4ccccn4)cc3)nn2)[C@@H]1O (some centres undefined) | – | > 50 | > 50 | – | –
6 | c1ccc(C(c2ccc(OCc3cn(C[C@H]4CCCN4)nn3)cc2)c2ccc(OCc3cn(C[C@H]4CCCN4)nn3)cc2)nc1 | Non-Toxic | > 50 | > 50 | 100 | –
7 | C#CCOc1ccc(C(c2ccc(OCc3cn(Cc4ccccc4)nn3)cc2)c2ccccn2)cc1 (centres undefined) | Non-Toxic | > 50 | > 50 | 100 | –
8 | C#CCOc1ccc(C(c2ccc(OCc3cnnn3CCCN)cc2)c2ccccn2)cc1 (centres undefined) | Non-Toxic | > 50 | > 50 | 100 | –
9 | OC[C@@H](O)[C@H]1O[C@H](O)[C@H](O)[C@H]1n1cc(COc2ccc(C(c3ccc(OCc4cn([C@@H]5[C@@H](O)[C@@H](O)O[C@@H]5[C@H](O)CO)nn4)cc3)c3ccccn3)cc2)nn1 (some centres undefined) | – | > 50 | > 50 | – | –
